Measurements published in paper PMC6099841, “New Chromane-Based Derivatives as Inhibitors of Mycobacterium tuberculosis Salicylate Synthase (MbtI): Preliminary Biological Evaluation and Molecular Modeling Studies” (Molecules : A Journal of Synthetic Chemistry and Natural …, 2018).
Like-named read-outs stand apart in the source and are kept apart here.

Experiments:
Experiment in all cases: biochemical
salicylate synthase MbtI [1] = target: T1, salicylate synthase MbtI (Mycobacterium tuberculosis, UniProt P9WFX1)
T1 sequence (P9WFX1 whole entry): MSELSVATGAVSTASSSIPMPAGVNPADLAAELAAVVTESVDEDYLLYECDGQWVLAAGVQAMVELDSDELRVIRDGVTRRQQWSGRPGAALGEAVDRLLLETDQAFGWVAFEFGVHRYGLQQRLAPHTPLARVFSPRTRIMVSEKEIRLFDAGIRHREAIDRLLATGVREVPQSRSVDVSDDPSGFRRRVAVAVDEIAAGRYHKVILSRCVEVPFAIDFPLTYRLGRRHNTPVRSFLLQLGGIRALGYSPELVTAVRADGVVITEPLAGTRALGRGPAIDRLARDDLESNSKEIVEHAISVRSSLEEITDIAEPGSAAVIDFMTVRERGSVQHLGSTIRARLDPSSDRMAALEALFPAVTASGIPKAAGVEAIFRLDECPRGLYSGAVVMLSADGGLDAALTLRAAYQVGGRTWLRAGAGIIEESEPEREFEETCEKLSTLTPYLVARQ

salicylate synthase MbtI [2] = target: T1, salicylate synthase MbtI; remark: listed apart in the source
salicylate synthase MbtI [3] = target: T1, salicylate synthase MbtI; conditions: read-out: MbtI Residual Activity at 100 μM

SMILES: CC=C(Oc1cccc(C(=O)O)c1O)C(=O)O [I, (1-carboxyprop-1-enyloxy)-2-hydroxybenzoic acid]
- IC50 (salicylate synthase MbtI [1]): 11.6 ± 2.4 µM

SMILES: CC1CC(=O)c2c(cc(O)cc2C(=O)O)O1 (stereo not shown) [compound 1, 7-Hydroxy-2-methyl-4-oxo-3,4-dihydro-2H-benzopyran-5-carboxylic acid]
- IC50 (salicylate synthase MbtI [2]; read-out: IC50): 55.8 ± 4.2 µM

SMILES: O=C(O)c1cc(O)cc2c1C(=O)CCO2 [compound 2, 7-Hydroxy-4-oxo-3,4-dihydro-2H-benzopyran-5-carboxylic acid]
- IC50 (salicylate synthase MbtI [2]; read-out: MbtI IC50): 61.3 ± 5.3 µM

SMILES: CC1CCc2c(cc(O)cc2C(=O)O)O1 (stereo not shown) [compound 5, 7-Hydroxy-2-methylchroman-5-carboxylic acid]
- remaining activity at 100 µM (salicylate synthase MbtI [3]): 50.1 ± 7.1%
